Laboratory results from patent US20120029177A1, “HETEROCYCLE-AMINO ACID DERIVATIVES FOR TARGETING CANCER TISSUE AND RADIOACTIVE OR NON-RADIOACTIVE LABELED COMPOUNDS THEREOF” (SNU R&DB FOUNDATION, priority 2009, published 2012).

Columns and labels:
U87MG cells = test: In vitro cell uptake, U87MG (FIG. 1a); format: cell-based, human; conditions: controls ^68Ga-DOTA, ^68Ga-NOTA
Protocol: Human colon cancer cell line SNU-C4 was purchased from Korea Cell Line Bank (KCLB). Human thyroid cell line ARO, human liver cancer cell line Hep3B, human glioma cell line U251MG and U87MG, and mouse colon cell line CT-26 were purchased from American Type Culture Collection (ATCC). SNU-C4 and ARO were culture in RPMI1640 (Welgene Inc., Korea) and Hep3B, U251 MG, U87MG, and CT-26 were cultured in DMEM (Welgene Inc., Korea). Penicillin, streptomycin and amphotericin B (10,000 IU/mL, 10 mg/mL and 25 μg/mL, respectively, Mediatech Inc., U.S.A.) 1% mixture and fetal bovine serum (Welgene Inc., Korea) were added to all cell culture media. Cell culture was done in 37° C. incubator with supply of 5% CO2.
About 1.8×10^5 cells/mL CT-26 and 1.2×10^5 cells/mL U87MG were put into 24-well incubation plate and incubated for 20 hr. When the each well was about 80% confluent with cells, 296 kBq/0.5 mL of ^68Ga labeled agent was added to each well. Culture supernatants were discarded at each time point and cells were washed with ice-cooled Hank's balanced salt solution (HBSS, pH7.3, Gibco, U.S.A.) 2 times. The cells were dissolved by 0.5% sodium dodecylsulfate (SDS), recovered and counted using a gamma counter (Packard, Can berra Co., U.S.A.). Total protein amount in each sample was measured by bicinchonic acid (BCA, Pierce, U.S.A.) method.

[1] = system: SNU-C4 xenografted nude mice; test: PET imaging of tumor xenografted mice; format: in vivo, mouse; conditions: PET at 1 and 2 hr post-injection, FIG. 2
Protocol: Human colon cancer cell line SNU-C4 was cultured in RPMI1640 media containing 10% fetal bovine serum and harvested using trypsin. The cells were washed using 10 mL PBS and centrifugation at 3,000 rpm. Each nude mouse was injected with 2×10^5 cells/0.1 mL on the right shoulder subcutaneously. On 14 days post-injection, each 10 μCi/0.1 mL of ^68Ga labeled agent was injected into the xenografted mice through the tail vein. The injected mice were anesthetized using 2% isoflurane, PET images were obtained at 1 and 2 hr post-injection using rodent R4, microPET scanner (Concorde Microsystem Inc.). The images were analyzed using ASIPro software (Concorde Microsystem Inc.).

[2] = system: SNU-C4 xenografted nude mice; test: Biodistribution study in SNU-C4 xenografted nude mice after intravenous injection; format: in vivo, mouse; conditions: for % ID/g Tumor: SNU-C4 tumor
Protocol: Human colon cancer cell line SNU-C4 was cultured in RPMI1640 media containing 10% fetal bovine serum and harvested using trypsin. The cells were washed using 10 mL PBS and centrifugation at 3,000 rpm. Each nude mouse was injected with 2×10^5 cells/0.1 mL on the right shoulder subcutaneously. On 13 days post-injection, each 10 μCi/0.1 mL of ^68Ga labeled agent was injected into the xenografted mice through the tail vein. The injected mice were sacrificed at 10 min, 30 min, 1 hr, and 2 hr, cancer, blood, muscle, heart, liver, spleen, stomach, intestine, and bone were obtained, weighed, and their radioactivities were counted. The results were expressed as percentages of injected dose per gram tissue (% ID/g).

Hep3B cells = test: In vitro cell uptake, Hep3B (FIG. 1c); format: cell-based, human; conditions: control ^68Ga-NOTA
[3] = 10 min after intravenous injection
[4] = 30 min after intravenous injection
[5] = 1 hr after intravenous injection
[6] = 2 hr after intravenous injection

## NC(CNC(=O)CN1CCN(CC(=O)[O-])CCN(CC(=O)[O-])CCN(CC(=O)[O-])CC1)C(=O)O.[68Ga+3] (centres unmarked) [^68Ga-DOTA-ala]
U87MG cells
  tumor cell uptake versus control agents: significantly increase tumor cell uptakes
[1]
  tumor uptake in PET images: high tumor uptakes
[2]; [3]
  % ID/g Tumor: 3.33 ± 0.58 % ID/g
  % ID/g Blood: 7.87 ± 1.11 % ID/g
  % ID/g Bone: 2.52 ± 0.64 % ID/g
  % ID/g Heart: 2.19 ± 0.47 % ID/g
  % ID/g Intestine: 1.91 ± 0.48 % ID/g
  % ID/g Kidney: 50.94 ± 18.62 % ID/g
  % ID/g Liver: 1.57 ± 0.22 % ID/g
  % ID/g Muscle: 2.12 ± 0.64 % ID/g
  % ID/g Spleen: 1.64 ± 0.26 % ID/g
  % ID/g Stomach: 2.63 ± 0.63 % ID/g
[2]; [4]
  % ID/g Tumor: 2.23 ± 0.64 % ID/g
  % ID/g Blood: 2.63 ± 0.11 % ID/g
  % ID/g Bone: 1.20 ± 0.17 % ID/g
  % ID/g Heart: 0.78 ± 0.07 % ID/g
  % ID/g Intestine: 0.74 ± 0.11 % ID/g
  % ID/g Kidney: 44.79 ± 11.99 % ID/g
  % ID/g Liver: 0.80 ± 0.12 % ID/g
  % ID/g Muscle: 0.90 ± 0.11 % ID/g
  % ID/g Spleen: 0.74 ± 0.10 % ID/g
  % ID/g Stomach: 0.90 ± 0.17 % ID/g
[2]; [5]
  % ID/g Tumor: 0.93 ± 0.22 % ID/g
  % ID/g Blood: 1.30 ± 0.28 % ID/g
  % ID/g Bone: 0.90 ± 0.12 % ID/g
  % ID/g Heart: 0.43 ± 0.10 % ID/g
  % ID/g Intestine: 0.52 ± 0.10 % ID/g
  % ID/g Kidney: 67.43 ± 16.10 % ID/g
  % ID/g Liver: 0.56 ± 0.06 % ID/g
  % ID/g Muscle: 0.47 ± 0.16 % ID/g
  % ID/g Spleen: 0.47 ± 0.04 % ID/g
  % ID/g Stomach: 0.45 ± 0.10 % ID/g
[2]; [6]
  % ID/g Tumor: 0.66 ± 0.25 % ID/g
  % ID/g Blood: 0.65 ± 0.11 % ID/g
  % ID/g Bone: 0.70 ± 0.26 % ID/g
  % ID/g Heart: 0.15 ± 0.05 % ID/g
  % ID/g Intestine: 0.40 ± 0.10 % ID/g
  % ID/g Kidney: 48.79 ± 20.36 % ID/g
  % ID/g Liver: 0.39 ± 0.10 % ID/g
  % ID/g Muscle: 0.14 ± 0.03 % ID/g
  % ID/g Spleen: 0.33 ± 0.08 % ID/g
  % ID/g Stomach: 0.21 ± 0.05 % ID/g
[2]; SNU-C4 xenografted nude mice, 10 min to 2 hr
  tumor uptake compared with the control heterocyclic compound (in words): higher than that of ^68Ga-DOTA at all time point

## NC(CCCCNC(=O)CN1CCN(CC(=O)[O-])CCN(CC(=O)[O-])CC1)C(=O)[O-].[68Ga+3] (centres unmarked) [^68Ga-NOTA-lys]
Hep3B cells
  tumor cell uptake versus control agents: significantly increase tumor cell uptakes
